Source: PubChem BioAssay AID1963979 (Molecular Pharmacology Branch, DTP, NCI, 2024)
Values belong to the compound of their own block, whether it stands above or below them.

Test system: 361931-004-R-J1-PDC multicell spheroid viability
Assay: Anticancer human tumor 361931-004-R-J1-PDC patient-derived colon adenocarcinoma cell line growth inhibition [PI3K]
Details: for IC50: curve of first compound; for viability, T/C: stronger effect = lower value
Outline: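 Tumor cells grown as multi-cell spheroids with HUVEC endothelial cells and MSC fibroblast-like stroma were treated with targeted agents combined with inavolisib, alpelisib, duvelisib or copanlisib. Doses fell in half-log steps from near clinical Cmax, else from 10 microM. Viability was measured.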

[1] = second compound 0.00316 µM, first compound 0.00316 µM
[2] = second compound 0.00316 µM, first compound 0.01 µM
[3] = second compound 0.00316 µM, first compound 0.0316 µM
[4] = second compound 0.00316 µM, first compound 0.1 µM
[5] = second compound 0.00316 µM, first compound 0.316 µM
[6] = second compound 0.00316 µM, first compound 1 µM
[7] = second compound 0.01 µM, first compound 0.00316 µM
[8] = second compound 0.01 µM, first compound 0.01 µM
[9] = second compound 0.01 µM, first compound 0.0316 µM
[10] = second compound 0.01 µM, first compound 0.1 µM
[11] = second compound 0.01 µM, first compound 0.316 µM
[12] = second compound 0.01 µM, first compound 1 µM
[13] = second compound 0.0316 µM, first compound 0.00316 µM
[14] = second compound 0.0316 µM, first compound 0.01 µM
[15] = second compound 0.0316 µM, first compound 0.0316 µM
[16] = second compound 0.0316 µM, first compound 0.1 µM
[17] = second compound 0.0316 µM, first compound 0.316 µM
[18] = second compound 0.0316 µM, first compound 1 µM
[19] = second compound 0.1 µM, first compound 0.00316 µM
[20] = second compound 0.1 µM, first compound 0.01 µM
[21] = second compound 0.1 µM, first compound 0.0316 µM
[22] = second compound 0.1 µM, first compound 0.1 µM
[23] = second compound 0.1 µM, first compound 0.316 µM
[24] = second compound 0.1 µM, first compound 1 µM
[25] = second compound 0.316 µM, first compound 0.00316 µM
[26] = second compound 0.316 µM, first compound 0.01 µM
[27] = second compound 0.316 µM, first compound 0.0316 µM
[28] = second compound 0.316 µM, first compound 0.1 µM
[29] = second compound 0.316 µM, first compound 0.316 µM
[30] = second compound 0.316 µM, first compound 1 µM
[31] = second compound 1 µM, first compound 0.00316 µM
[32] = second compound 1 µM, first compound 0.01 µM
[33] = second compound 1 µM, first compound 0.0316 µM
[34] = second compound 1 µM, first compound 0.1 µM
[35] = second compound 1 µM, first compound 0.316 µM
[36] = second compound 1 µM, first compound 1 µM
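Also: spheroids exposed to agents for seven days before readout.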

IC50 (second compound 0.00316 µM): > 1 µM
IC50 (second compound 0.01 µM): > 1 µM
IC50 (second compound 0.0316 µM): 0.864 µM
IC50 (second compound 0.1 µM): 0.223 µM
IC50 (second compound 0.316 µM): < 0.00316 µM
IC50 (second compound 1 µM): < 0.00316 µM
SMILES: CCN1CCN(Cc2ccc(Nc3ncc(F)c(-c4cc(F)c5nc(C)n(C(C)C)c5c4)n3)nc2)CC1 + COc1c(OCCCN2CCOCC2)ccc2c3n(c(=NC(=O)c4cnc(N)nc4)nc12)CCN3
viability, T/C [1]: 92.3%
viability, T/C [2]: 101%
viability, T/C [3]: 103%
viability, T/C [4]: 103%
viability, T/C [5]: 94.6%
viability, T/C [6]: 87.6%
viability, T/C [7]: 100%
viability, T/C [8]: 95.1%
viability, T/C [9]: 94.4%
viability, T/C [10]: 85%
viability, T/C [11]: 77.2%
viability, T/C [12]: 64.5%
viability, T/C [13]: 86.7%
viability, T/C [14]: 91.3%
viability, T/C [15]: 80.7%
viability, T/C [16]: 73.5%
viability, T/C [17]: 62.3%
viability, T/C [18]: 48.1%
viability, T/C [19]: 80.8%
viability, T/C [20]: 74.3%
viability, T/C [21]: 60.3%
viability, T/C [22]: 54.3%
viability, T/C [23]: 51.2%
viability, T/C [24]: 39.9%
viability, T/C [25]: 50%
viability, T/C [26]: 44.7%
viability, T/C [27]: 43.2%
viability, T/C [28]: 39.7%
viability, T/C [29]: 39%
viability, T/C [30]: 39.9%
viability, T/C [31]: 22.7%
viability, T/C [32]: 21.8%
viability, T/C [33]: 18.7%
viability, T/C [34]: 22.2%
viability, T/C [35]: 30.3%
viability, T/C [36]: 32.1%

IC50 (second compound 0.00316 µM): > 10 µM
IC50 (second compound 0.01 µM): > 10 µM
IC50 (second compound 0.0316 µM): > 10 µM
IC50 (second compound 0.1 µM): 5.01 µM
IC50 (second compound 0.316 µM): 0.213 µM
IC50 (second compound 1 µM): < 0.0316 µM
SMILES: C[C@@H](NC(=O)c1ncnc(N)c1Cl)c1ncc(C(=O)Nc2cc(C(F)(F)F)c(Cl)cn2)s1 + COc1c(OCCCN2CCOCC2)ccc2c3n(c(=NC(=O)c4cnc(N)nc4)nc12)CCN3
viability, T/C [3]: 108%
viability, T/C [4]: 101%
viability, T/C [5]: 108%
viability, T/C [6]: 102%
viability, T/C (second compound 0.00316 µM, first compound 3.16 µM): 109%
viability, T/C (second compound 0.00316 µM, first compound 10 µM): 89.2%
viability, T/C [9]: 110%
viability, T/C [10]: 99.9%
viability, T/C [11]: 105%
viability, T/C [12]: 98%
viability, T/C (second compound 0.01 µM, first compound 3.16 µM): 98.4%
viability, T/C (second compound 0.01 µM, first compound 10 µM): 89%
viability, T/C [15]: 98.6%
viability, T/C [16]: 100%
viability, T/C [17]: 96.6%
viability, T/C [18]: 87.7%
viability, T/C (second compound 0.0316 µM, first compound 3.16 µM): 89.2%
viability, T/C (second compound 0.0316 µM, first compound 10 µM): 71.2%
viability, T/C [21]: 85.9%
viability, T/C [22]: 86.1%
viability, T/C [23]: 91.1%
viability, T/C [24]: 71.3%
viability, T/C (second compound 0.1 µM, first compound 3.16 µM): 64.5%
viability, T/C (second compound 0.1 µM, first compound 10 µM): 31%
viability, T/C [27]: 58%
viability, T/C [28]: 54.3%
viability, T/C [29]: 46.5%
viability, T/C [30]: 39.9%
viability, T/C (second compound 0.316 µM, first compound 3.16 µM): 25.7%
viability, T/C (second compound 0.316 µM, first compound 10 µM): 7.73%
viability, T/C [33]: 26.1%
viability, T/C [34]: 25.8%
viability, T/C [35]: 17.7%
viability, T/C [36]: 11.8%
viability, T/C (second compound 1 µM, first compound 3.16 µM): 8.36%
viability, T/C (second compound 1 µM, first compound 10 µM): 1.75%

IC50 (second compound 0.00316 µM): > 0.1 µM
IC50 (second compound 0.01 µM): > 0.1 µM
IC50 (second compound 0.0316 µM): > 0.1 µM
IC50 (second compound 0.1 µM): > 0.1 µM
IC50 (second compound 0.316 µM): 0.0011 µM
IC50 (second compound 1 µM): < 0.000316 µM
SMILES: Cn1ncnc1[C@H]1c2n[nH]c(=O)c3cc(F)cc(c23)N[C@@H]1c1ccc(F)cc1 + COc1c(OCCCN2CCOCC2)ccc2c3n(c(=NC(=O)c4cnc(N)nc4)nc12)CCN3
viability, T/C (second compound 0.00316 µM, first compound 0.000316 µM): 105%
viability, T/C (second compound 0.00316 µM, first compound 0.001 µM): 106%
viability, T/C [1]: 97.9%
viability, T/C [2]: 98.2%
viability, T/C [3]: 101%
viability, T/C [4]: 87.8%
viability, T/C (second compound 0.01 µM, first compound 0.000316 µM): 91.1%
viability, T/C (second compound 0.01 µM, first compound 0.001 µM): 97.1%
viability, T/C [7]: 102%
viability, T/C [8]: 93%
viability, T/C [9]: 91.5%
viability, T/C [10]: 84.9%
viability, T/C (second compound 0.0316 µM, first compound 0.000316 µM): 97%
viability, T/C (second compound 0.0316 µM, first compound 0.001 µM): 87%
viability, T/C [13]: 90%
viability, T/C [14]: 82.7%
viability, T/C [15]: 87.3%
viability, T/C [16]: 77.9%
viability, T/C (second compound 0.1 µM, first compound 0.000316 µM): 81.7%
viability, T/C (second compound 0.1 µM, first compound 0.001 µM): 73.5%
viability, T/C [19]: 78.6%
viability, T/C [20]: 72.4%
viability, T/C [21]: 80.3%
viability, T/C [22]: 64.7%
viability, T/C (second compound 0.316 µM, first compound 0.000316 µM): 50.5%
viability, T/C (second compound 0.316 µM, first compound 0.001 µM): 53.9%
viability, T/C [25]: 48.3%
viability, T/C [26]: 41.5%
viability, T/C [27]: 41%
viability, T/C [28]: 39.2%
viability, T/C (second compound 1 µM, first compound 0.000316 µM): 15.9%
viability, T/C (second compound 1 µM, first compound 0.001 µM): 19.1%
viability, T/C [31]: 20.5%
viability, T/C [32]: 19.7%
viability, T/C [33]: 16.3%
viability, T/C [34]: 17.6%
